Measured values: paper PMC6472337, “L amino acid transporter structure and molecular bases for the asymmetry of substrate interaction” (Nature Communications, 2019)
Values joined by “and” are separate entries in the source; they are usually repeats but may differ in a detail not shown here. Equal values may be shown once. Read-outs that look alike come from different tables or passages of the source.

Experiments:
BasC Y236F mutant = assay: Thermostability-based L-alanine binding assay, Y236F; set-up: species or system Carnobacterium sp AT7; conditions: for Kd Y236F binding curve, normalized signal: n=1-3
Experimental: (§1) GFP-fused BasC proteins purified in DM were incubated for 10 min at 4–60 °C (Y236F and K154A mutants) or 4–70 °C (wild-type). In total, 200 µl of 2 mg ml^−1 protein was used for each temperature point. Protein was then centrifuged at 186,000 × g for 30 min. […] Fractions (200 µl) were collected and measured for GFP fluorescence. The peak heights were normalized to those of samples incubated at 4 °C and were fit to the Hill equation using the GraphPad Prism 4 program (GraphPad Software Inc., San Diego, CA). Melting temperatures (Tm) were determined by fitting the curves to a sigmoidal dose-response equation, as previously described.
(§2) BasC-GFP proteins were then incubated at the calculated Tm for 10 min and centrifuged at 186,000 × g for 30 min. […] Binding affinities were determined by fitting the curves to a sigmoidal dose-response equation.

BasC K154A mutant = assay: Thermostability-based L-alanine binding assay, K154A; set-up: species or system Carnobacterium sp AT7; conditions: for Kd K154A binding curve, normalized signal: n=1-3
Experimental: as §1, §2

In the case of `C[C@H](N)C(=O)O` [L-alanine], the Kd (BasC Y236F mutant; Y236F, incubated at Tm, L-alanine 0–200 mM, read-out: KD (apparent, thermostability-based)) is reported as 42.3 ± 5 mM, the “Kd Y236F binding curve, normalized signal” value (BasC Y236F mutant; [L-Alanine] 6.25 mM) is reported as 22.582 and 17.176 and 16.654 and the “Kd Y236F binding curve, normalized signal” value (BasC Y236F mutant; [L-Alanine] 12.50 mM) is reported as 33.547 and 26.076 and 17.575. For the same compound, the “Kd Y236F binding curve, normalized signal” value (BasC Y236F mutant; [L-Alanine] 25 mM) was 44.758 and 42.547 and 31.773, the “Kd Y236F binding curve, normalized signal” value (BasC Y236F mutant; [L-Alanine] 50 mM) was 72.230 and 70.914 and 57.702 and the “Kd Y236F binding curve, normalized signal” value (BasC Y236F mutant; [L-Alanine] 100 mM) was 89.225 and 96.379 and 94.240. The “Kd Y236F binding curve, normalized signal” value (BasC Y236F mutant; [L-Alanine] 150 mM) was 94.446 and 95.445 and 86.456, the “Kd Y236F binding curve, normalized signal” value (BasC Y236F mutant; [L-Alanine] 200 mM) was 100.000 and the Kd (BasC Y236F mutant; individual experiments n=1, n=2, n=3, read-out: Apparent Kd Y236F) was 44.1 mM and 36.7 mM and 46.2 mM. For the same compound, the Kd (BasC Y236F mutant; mean of n=3, read-out: Apparent Kd Y236F, mean) was 42.3 mM, the Kd (BasC K154A mutant; K154A, incubated at Tm, L-alanine 0–200 mM, read-out: KD (apparent, thermostability-based)) was 61.4 ± 7.3 mM and the “Kd K154A binding curve, normalized signal” value (BasC K154A mutant; [L-Alanine] 6.25 mM) was 14.092 and 14.380 and 15.376. The “Kd K154A binding curve, normalized signal” value (BasC K154A mutant; [L-Alanine] 12.50 mM) was 15.845 and 21.520 and 16.121, the “Kd K154A binding curve, normalized signal” value (BasC K154A mutant; [L-Alanine] 25 mM) was 35.951 and 29.574 and 35.797 and the “Kd K154A binding curve, normalized signal” value (BasC K154A mutant; [L-Alanine] 50 mM) was 50.837 and 57.901 and 51.971. The “Kd K154A binding curve, normalized signal” value (BasC K154A mutant; [L-Alanine] 100 mM) was 91.898 and 90.173 and 89.225, the “Kd K154A binding curve, normalized signal” value (BasC K154A mutant; [L-Alanine] 150 mM) was 95.225 and 92.554 and 88.658 and the “Kd K154A binding curve, normalized signal” value (BasC K154A mutant; [L-Alanine] 200 mM) was 100.000. For the same compound, the Kd (BasC K154A mutant; individual experiments n=1, n=2, n=3, read-out: Apparent Kd K154A) was 55.6 mM and 58.9 mM and 69.7 mM and the Kd (BasC K154A mutant; mean of n=3, read-out: Apparent Kd K154A, mean) was 61.4 mM.
